Laboratory results from US20260151391A1, “TREATMENT OF MITOCHONDRIAL DISEASES WITH sGC STIMULATORS” (Tisento Therapeutics Inc., priority 2022, published 2026).

Tested on: memory disruption induced by MK-801 in male Long Evans rats
Experiment: Novel Object Recognition (NOR) test, memory disruption induced by MK-801
Assay type: in vivo, rat
Conditions: any dose tested, oral
Experimental: In the present study, a memory saving model was used. MK-801 (Dizocilpine), an uncompetitive antagonist of the NMDA receptor was used to cause deficit of recognition memory. sGC stimulators were evaluated for their efficacy to prevent memory impairment induced by MK-801.
Adult male Long-Evans rats (275-299 gram at arrival from Envigo, Indianapolis, IN) were used in this study. Rats were placed in the experimental rooms and assigned unique identification numbers (tail marks). Rats were housed 2 per cage in polycarbonate cages with filter tops and acclimated for at least 7 days prior to testing. […]
NOR test was conducted in an open-field arena (40×40 cm) placed in a sound-attenuated room under dimmed lighting. […] All training and testing trials were video-taped and scored by an observer blind to treatments.
On Days 1 and 2, rats were allowed to freely explore the arena (no objects inside) for a 5-minute habituation period. […] Each rat was placed in the arena facing the same direction at the same position, and the time spent actively exploring the objects during a 3-minute training period (T1) was recorded. […] Each rat was placed back into the test arena in the presence of one familiar object and one novel object for 5 minutes, and the time spent exploring both objects was recorded. […]

How did the “obvious side effects in NOR study” value turn out when `Cc1cc(F)c(Cc2nc(-c3ncc(F)c(O)n3)cn3ccnc23)cc1F` [Compound I-14, 5-fluoro-2-(8-(2,5-difluoro-4-methylbenzyl)imidazo[1,2-a]pyrazin-6-yl)pyrimidin-4-ol] was run?
Its value is “None of the rats in this study showed obvious side effects”.
